Test results published in patent US9637476B2, “Atrasentan mandelate salts” (AbbVie Inc., priority 2013, dated 2017).
Several values for one entry are separate records, joined by “and”; a condition that tells them apart may be missing. Identical values can stand only once. Counter-ions that a name gives are not always drawn. Like-named read-outs stand apart in the source and are kept apart here. Marks after values point to notes of the source that are not given here. Blank lines part the entries; values can stand above or below the molecule they belong to.

Key:
Assay type in all cases: physicochemical
[1] = Crystal morphology assessed by microscopy
[2] = Moisture sorption isotherm (DVS); details: 25° C.; as the relative humidity decreased below 10%
Procedure: A study was conducted to evaluate the moisture sorption isotherms of atrasentan hemi-sulfate salt (1:1 stoichiometry), monohydrate, and atrasentan S-mandelate salt (1:1 stoichiometry), anhydrate. A sample (about 5 mg to about 20 mg) of the powder to be tested was loaded onto the tared pan of a DVS Advantage dynamic gravimetric water sorption analyzer (Surface Measurement Systems Ltd, Alperton, United Kingdom). The moisture sorption isotherm for each sample was collected at 10% relative humidity intervals as the relative humidity was adjusted in the following manner: (a) 0% to 90% to 0% to 90% to 40% for the hemi-sulfate salt, and (b) 0% to 90% to 0% for the S-mandelate salt. For each step, the dm/dt criteria were 0.001% over 5 minutes with a minimum dm/dt time of 30 minutes and a maximum dm/dt of 120 minutes. Data was collected isothermally at 25° C. with a nitrogen flow rate of […]. The sample was maintained at 30% relative humidity and analyzed by PXRD. The moisture sorption isotherms generated for the hemi-sulfate and S-mandelate salt samples are shown in FIG. 6-A and FIG. 6-B, respectively.

[3] = Intrinsic dissolution rate as a function of chloride ion concentration; details: for IDR (intrinsic dissolution rate): pH 2.0 phosphate buffer, 37° C., 50 rpm; for linear regression intercept a of IDR = a + b × [Cl−] / linear regression slope b of IDR = a + b × [Cl−]: pH 2.0, [Cl−] 0 to 0.17 M
Procedure: (§1) About 100 mg of the sample tested was prepared by compressing the sample in a stainless steel die under 1100 pounds force with a dwell time of one minute to form a pellet. The die (diameter: 0.373 inch, area: 0.704 cm^2) containing the pellet was submerged in 250 mL of a phosphate buffer dissolution test medium having a pH of 2.0 and a chloride ion concentration of 0 M, 0.017 M, or 0.17 M. The medium was stirred by a paddle at 50 rpm and maintained at 37° C. To measure the concentration of the sample material in test medium, a fiber optic dip probe (μDiss Profile, pION
Inc) was used to monitor the UV absorbance as a function of time. The measured data are reported in Table 13-A below and are shown graphically in FIG. 5.
The intrinsic dissolution data reported in Table 13-A were further evaluated using linear regression analysis.

[4] = Morphology and particle size distribution of the unmilled samples; details: for PARTICLE SIZE DISTRIBUTION D10 / PARTICLE SIZE DISTRIBUTION D50 / PARTICLE SIZE DISTRIBUTION D90: unmilled; for MORPHOLOGY: unmilled sample used for density measurement
[5] = Oxidative stability (urea-H2O2 co-crystal, HPLC); details: for RECOVERED (%): solid exposed to urea-H2O2 co-crystal, 40° C., HPLC, individual samples 1-3; for RECOVERED (%) / AVERAGE (%) recovered / AVERAGE % (NORMALIZED): seven days; for AVERAGE (%) recovered / AVERAGE % (NORMALIZED): urea-H2O2, 40° C.; for AVERAGE (%) recovered: mean of samples 1-3; for AVERAGE % (NORMALIZED): sample average normalized to freezer blank average
Procedure: About 1 mg of each solid was placed in a 4 mL glass vial and about 10 mg of urea-H2O2 co-crystal was placed in another 4 mL vial. The two vials then were connected by a connector (Kontes connector, 13-425X13-425, apt NO 747205-1313) and left in an oven at 40° C. for seven days. Blank samples were prepared by placing about 1 mg of each compound in a 4 mL vial and then storing the vial in a freezer at about −20° C. for the same period of time. The oven samples and freezer blanks were analyzed at the same time by HPLC. The measured data are reported in Table II-B below and the normalized data from Table II-B are shown in a bar chart in FIG. 3.

[6] = Bulk density and tap density (USP <616>); details: unmilled; USP <616> Method I, 100 mL cylinder
Procedure: Bulk and tap density are measured following United States Pharmacopeia and National Formulary guidelines (USP <616>). Approximately 60 mL of each sample is added into a 100 mL graduated cylinder. The powder is carefully leveled without compacting, and the volume is read directly from the cylinder and used to calculate the bulk density according to the relationship: mass/volume. The cylinder containing the powder sample is then mechanically tapped using a VanKel Tap Density Tester (Model 50-1200, Varian, Inc., Palo Alto, Calif.) until there is no change in volume. The volume of the sample is then read and used in the calculation of tap density.
Bulk density and tap density were measured for samples of the following materials: (i) unmilled atrasentan hydrochloride salt having the morphology and particle size distribution listed below in Table 10; and (ii) unmilled atrasentan mandelate salt having the morphology and particle size distribution listed below in Table 10. […] Bulk density was measured in accordance with Bulk Density, Method I of United States Pharmacopeia and National Formulary Guidelines (USP <616>) except that a 100 mL cylinder was filled with the sample for the testing. Tap density was measured in accordance with Tapped Density, Method I of United States Pharmacopeia and National Formulary guidelines (USP <616>) except that a 100 mL cylinder was filled with the sample for the testing.

[7] = Intrinsic dissolution rate as a function of pH; details: for IDR (intrinsic dissolution rate): 37° C., 50 rpm, single runs
Procedure: as §1, with “of 2.0, 5.0,” for “of 2.0 and a chloride ion concentration of 0 M, 0.017 M,”, “or 7.4.” for “or 0.17 M.”, “in the” for “in test”, “pION Inc) was used to monitor the UV absorbance as a function of time. The measured data are reported in Table 12-A below and are shown graphically in FIG. 4.” for “pION”

Molecule: CCCCN(CCCC)C(=O)CN1C[C@H](c2ccc3c(c2)OCO3)[C@@H](C(=O)O)[C@@H]1c1ccc(OC)cc1.Cl
- CRYSTAL MORPHOLOGY [1]: Needle

Molecule: CCCCN.CCCCN(CCCC)C(=O)CN1CC(c2ccc3c(c2)OCO3)C(C(=O)O)C1c1ccc(OC)cc1 (stereo not drawn)
- CRYSTAL MORPHOLOGY [1]: Bar

Molecule: Mandelate
- IDR (intrinsic dissolution rate) ([7]; pH 5.0 phosphate buffer): 2.1 × 10^−2 mg/min/cm^2 and 1.8 × 10^−2 mg/min/cm^2
- IDR (intrinsic dissolution rate) ([7]; pH 7.4 phosphate buffer): 1.1 × 10^−1 mg/min/cm^2 and 1.0 × 10^−1 mg/min/cm^2
- intrinsic dissolution rate compared with atrasentan parent ([7]; paired t-test, pH 2.0, 5.0, 7.4): statistically greater intrinsic dissolution rate
- IDR (intrinsic dissolution rate) ([3]; [Cl−] 0.0 M): 1.0 × 10^−1 (n = 1) mg/min/cm^2
- IDR (intrinsic dissolution rate) ([3]; [Cl−] 0.017 M): 1.0 × 10^−1 (n = 1) mg/min/cm^2
- IDR (intrinsic dissolution rate) ([3]; [Cl−] 0.17 M): 8.3 × 10^−2 (n = 3)** mg/min/cm^2
- sensitivity of intrinsic dissolution rate to chloride ion concentration compared with hydrochloride salt ([3]; linear regression slopes): less sensitive to chloride ion concentration
- linear regression intercept a of IDR = a + b × [Cl−] [3]: a1 = 0.1035
- linear regression slope b of IDR = a + b × [Cl−] [3]: b1 = −0.1222
- CRYSTAL MORPHOLOGY [1]: Prism
- PARTICLE SIZE DISTRIBUTION D10 [4]: 16 μm
- PARTICLE SIZE DISTRIBUTION D50 [4]: 49 μm
- PARTICLE SIZE DISTRIBUTION D90 [4]: 141 μm
- MORPHOLOGY [4]: Prismatic
- oxidative stability compared with atrasentan parent and hydrochloride salt ([5]; ANOVA of sample recovery proportion): greater oxidative stability
- RECOVERED (%) [5]: 82.40% and 80.67% and 83.11%
- AVERAGE (%) recovered [5]: 79.58%
- AVERAGE % (NORMALIZED) [5]: 99.30%
- BULK DENSITY [6]: 0.25 g/mL
- TAP DENSITY [6]: 0.40 g/mL

Molecule: CCCCN(CCCC)C(=O)CN1CC(c2ccc3c(c2)OCO3)C(C(=O)O)C1c1ccc(OC)cc1.O=C(O)C(O)c1ccccc1 (stereo not drawn)
- CRYSTAL MORPHOLOGY [1]: Prism

Molecule: CCCCN(CCCC)C(=O)CN1CC(c2ccc3c(c2)OCO3)C(C(=O)O)C1c1ccc(OC)cc1.CCCCN(CCCC)C(=O)CN1CC(c2ccc3c(c2)OCO3)C(C(=O)O)C1c1ccc(OC)cc1.O=C(O)C(O)c1ccccc1 (stereo not drawn) [S-Mandelate (2:1 Stoichiometry), Hydrate]
- CRYSTAL MORPHOLOGY [1]: Prism

Molecule: CCCCN(CCCC)C(=O)CN1CC(c2ccc3c(c2)OCO3)C(C(=O)O)C1c1ccc(OC)cc1.Cl (stereo not drawn)
- CRYSTAL MORPHOLOGY [1]: Needle

Continued, in another order:

- CRYSTAL MORPHOLOGY [1]: Needle
Molecule: CCCCN(CCCC)C(=O)CN1CC(c2ccc3c(c2)OCO3)C(C(=O)O)C1c1ccc(OC)cc1.O.O=S(=O)(O)O (stereo not drawn)
- solid form change during moisture sorption isotherm [2]: partial conversion from the hydrate form to the anhydrate form

- CRYSTAL MORPHOLOGY [1]: Needle
Molecule: CCCCN(CCCC)C(=O)CN1C[C@H](c2ccc3c(c2)OCO3)[C@@H](C(=O)O)[C@@H]1c1ccc(OC)cc1 [Parent, Quarter-hydrate, (2R,3R,4S)-4-(1,3-benzodioxol-5-yl)-1-[2-(dibutylamino)-2-oxoethyl]-2-(4-methoxyphenyl)pyaolidine-3-carboxylic acid]

- IDR (intrinsic dissolution rate) ([3]; [Cl−] 0.0 M): 1.4 × 10^−1 (n = 1) mg/min/cm^2
- IDR (intrinsic dissolution rate) ([3]; [Cl−] 0.017 M): 1.3 × 10^−1 (n = 1) mg/min/cm^2
- IDR (intrinsic dissolution rate) ([3]; [Cl−] 0.17 M): 4.2 × 10^−2 (n = 1) mg/min/cm^2
- linear regression intercept a of IDR = a + b × [Cl−] [3]: a2 = 0.1377
- linear regression slope b of IDR = a + b × [Cl−] [3]: b2 = −0.5609
- CRYSTAL MORPHOLOGY ([1]; listed as Hydrochloride (1:1 Stoichiometry), Crystalline Form II): Needle
- PARTICLE SIZE DISTRIBUTION D10 [4]: 6.0 μm
- PARTICLE SIZE DISTRIBUTION D50 [4]: 20 μm
- PARTICLE SIZE DISTRIBUTION D90 [4]: 86 μm
- MORPHOLOGY [4]: Needle
- RECOVERED (%) [5]: 87.62% and 87.21% and 83.11%
- AVERAGE (%) recovered [5]: 85.98%
- AVERAGE % (NORMALIZED) [5]: 89.48%
- BULK DENSITY [6]: 0.11 g/mL
- TAP DENSITY [6]: 0.20 g/mL
Molecule: CCCCN(CCCC)C(=O)CN1C[C@H](c2ccc3c(c2)OCO3)[C@@H](C(=O)O)[C@@H]1c1ccc(OC)cc1 [Hydrochloride]

- CRYSTAL MORPHOLOGY [1]: Needle
Molecule: CCCCN(CCCC)C(=O)CN1C[C@H](c2ccc3c(c2)OCO3)[C@@H](C(=O)O)[C@@H]1c1ccc(OC)cc1 [Parent, Anhydrate, (2R,3R,4S)-4-(1,3-benzodioxol-5-yl)-1-[2-(dibutylamino)-2-oxoethyl]-2-(4-methoxyphenyl)pyaolidine-3-carboxylic acid]

- IDR (intrinsic dissolution rate) ([7]; pH 2.0 phosphate buffer): 2.7 × 10^−2 (n = 1) mg/min/cm^2
- IDR (intrinsic dissolution rate) ([7]; pH 7.4 phosphate buffer): 3.6 × 10^−2 (n = 1) mg/min/cm^2
- CRYSTAL MORPHOLOGY ([1]; Hemi-hydrate): Prism
- RECOVERED (%) [5]: 93.76% and 91.62% and 89.37%
- AVERAGE (%) recovered [5]: 91.58%
- AVERAGE % (NORMALIZED) [5]: 89.56%
Molecule: CCCCN(CCCC)C(=O)CN1C[C@H](c2ccc3c(c2)OCO3)[C@@H](C(=O)O)[C@@H]1c1ccc(OC)cc1 [Parent, (2R,3R,4S)-4-(1,3-benzodioxol-5-yl)-1-[2-(dibutylamino)-2-oxoethyl]-2-(4-methoxyphenyl)pyaolidine-3-carboxylic acid]
- IDR (intrinsic dissolution rate) ([7]; pH 5.0 phosphate buffer): 5.1 × 10^−3 mg/min/cm^2 and 5.4 × 10^−3 mg/min/cm^2
